Like-named read-outs stand apart in the source and are kept apart here.
Key:
hERG potassium channels = hERG potassium channels (Homo sapiens, UniProt Q12809); experiment: cell-based
Description: • Species & strain: CHO-hERG cell line (Chinese hamster ovary cells stably expressing hERG channels) • Culture medium: 90% F12, 10% fetal bovine serum, 100 µg/mL G418, and 100 µg/mL Hygromycin B • Culture conditions: incubator at 37 °C with 5% CO2 • Cryopreservation condition: liquid nitrogen
On the day of the test, the compound was diluted with DMSO to an intermediate concentration. Then, 10 µL of the intermediate-concentration compound was transferred to 4990 µL of extracellular fluid, achieving a 500-fold dilution to obtain the final concentration to be tested.
hERG potassium channel currents were recorded at room temperature by the whole-cell patch clamp technique in the CHO (Chinese hamster ovary) cells stably expressing hERG potassium channels. Glass microelectrodes were formed by pulling a glass electrode blank (BF150-86-10, Sutter) using a puller. The tip resistance after perfusion of electrode internal solution was about 2-5 MΩ. The glass microelectrodes could be connected to a patch clamp amplifier after being inserted into amplifier probes. The clamping voltage and data recording were controlled and recorded by a computer with a pClamp 10 software, with a sampling frequency of 10 kHz and a filtering frequency of 2 kHz. After achieving the whole-cell recording, the cells were clamped at -80 mV. The step voltage evoking hERG potassium current (IhERG) was changed from -80 mV to +20 mV by applying a 2 s depolarization voltage, followed by repolarization to -50 mV for 1 s, and then returned to -80 mV. This voltage stimulation was applied every 10 s, and after it was determined that the hERG potassium currents were stable (1 min), the administration process was started. Each test concentration of the compound was applied for at least 1 min, and at least 2 cells (n ≥ 2) were tested for each concentration.

[1] = In-vitro liver microsomal stability (rat); type: in vitro ADME; conditions: Rat liver microsomes, 1 µM, 0.5 mg/mL, NADPH
Description: (§1) Test Example 3. Evaluation of In-Vitro Liver Microsomal Stability
(§2) • 1) Preparation of test sample working solution: A test sample was diluted to 100 µM with methanol. • 2) Preparation of liver microsome working solution: Liver microsomes were diluted to 0.56 mg/mL with 100 mM phosphate-buffered saline. • 3) Preparation of working solution of reduced nicotinamide adenine dinucleotide phosphate (NADPH): A proper amount of NADPH was weighed out and diluted to 20 mM with phosphate-buffered saline, and then an equal volume of a 60 mM MgCl2 solution was added. • 4) Preparation of stop solution: Tolbutamide was diluted to 20 ng/mL with acetonitrile to serve as a stop solution containing an internal standard.
(§3) • 1) Anti-adsorption EP tubes for incubation were prepared and labeled with species, test samples, control samples (testosterone and dextromethorphan), time points (0 min, 5 min, 10 min, 20 min, 30 min, 60 min, Blank60, and NCF60), etc. • 2) 2 µL of test or control sample working solution and 178 µL of liver microsome working solution were added to each tube. For the Blank tube, 2 µL of acetonitrile was added instead of the test sample. The tubes were preincubated in a water bath at 37 °C for about 10 min, with 3 replicates set up for each sample. • 3) After the pre-incubation was completed, 20 µL of NADPH working solution was added to each tube except for the 0 min and NCF60 tubes to start the reaction. For the NCF60 tube, 20 µL of phosphate-buffered saline (containing 30 mM MgCl2) was added. In the incubation system, the final concentration of the test or control sample was 1 µM, the final concentration of liver microsomes was 0.5 mg/mL, the final concentration of NADPH was 1 mM, and the final concentration of MgCl2 was 3 mM. • 4) For the 0 min sample, 600 µL of stop solution was added, followed by the addition of the NADPH working solution. For the other samples, after each of them was incubated for the corresponding time, 600 µL of stop solution was added to stop the reaction. • 5) After the reaction was stopped, each sample was vortexed for 30 s and then centrifuged at 13500 rpm for 10 min. Then, 100 µL of the supernatant was transferred to an EP tube, and 100 µL of Milli-Q water was added. The mixture was well mixed by vortexing and analyzed by LC-MS/MS. • 6) Testosterone and dextromethorphan were used as positive control samples under the same conditions to assess the stability and reliability of the system.
(§4) Table 2: Test data for the compounds of the present disclosure in human and rat liver microsomes

[2] = In-vitro liver microsomal stability (human); type: in vitro ADME; conditions: Human liver microsomes, 1 µM, 0.5 mg/mL, NADPH
Description: as §1, §2, §3, §4

5-HT2A receptor = 5-HT2A receptor (Homo sapiens, UniProt P28223); experiment: Assay for 5-HT2A receptor inverse agonist activity (NIH3T3-5-HT2A R cells, Bright-Glo luciferase, cell inhibition rate)
Chain of 5-HT2A receptor (P28223 whole entry): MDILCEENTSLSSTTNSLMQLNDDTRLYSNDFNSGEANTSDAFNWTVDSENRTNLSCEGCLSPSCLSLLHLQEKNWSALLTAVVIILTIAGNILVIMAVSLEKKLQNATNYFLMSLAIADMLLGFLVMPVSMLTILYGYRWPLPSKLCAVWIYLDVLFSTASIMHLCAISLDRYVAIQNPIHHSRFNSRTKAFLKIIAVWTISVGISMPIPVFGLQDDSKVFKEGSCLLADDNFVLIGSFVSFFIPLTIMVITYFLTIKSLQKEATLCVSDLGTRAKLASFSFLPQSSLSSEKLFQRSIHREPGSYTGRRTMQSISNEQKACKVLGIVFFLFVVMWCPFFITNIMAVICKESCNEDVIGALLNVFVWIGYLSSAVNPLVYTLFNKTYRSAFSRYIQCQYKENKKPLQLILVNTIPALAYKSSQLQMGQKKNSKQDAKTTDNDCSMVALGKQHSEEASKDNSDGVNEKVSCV
Description: Assay for 5-HT2A Receptor Inverse Agonist Activity
• Cell line: adherent cells NIH3T3-5-HT2A R • Cell culture medium: DMEM + 10% FBS (purchased from GBICO) • Cell culture plate: 96-well white/clear bottom plate (purchased from Perkin Elmer) • Detection kit: Bright-Glo™ Luciferase (purchased from Promega) • Detection instrument: BioTek multimode microplate reader
NIH3T3-5HT2A R cells in the logarithmic growth phase were seeded into a 96-well white/clear bottom plate at a density of 1000 cells/well and then cultured overnight in an incubator at 37 °C with 5% CO2. […] Duplicate wells were set up for each concentration. […] After the drug addition, the cells were cultured in the incubator at 37 °C with 5% CO2 for another 120 h. On the sixth day, a Bright-Glo™ Luciferase reagent was added to the cells in a volume equal to that of the cell culture medium. The plate was then incubated in the dark at room temperature for 20 min, with the plate shaker vibrating once every 5 min. The luminescence intensity was detected using a microplate reader, and the cell inhibition rate was calculated. Data were processed using GraphPad Prism 7.0 to obtain the cell inhibition rate curve and calculate IC50.

[3] = In-vitro liver microsomal stability (dog); type: in vitro ADME; conditions: Dog liver microsomes, 1 µM, 0.5 mg/mL, NADPH
Description: as §1, §2
as §3, with “system. […]” for “system.”

[4] = 5-HT2A inverse agonist activity IC50 (nM), NIH3T3-5HT2A R cells, 120 h, luminescence

Chain of hERG potassium channels (Q12809 whole entry): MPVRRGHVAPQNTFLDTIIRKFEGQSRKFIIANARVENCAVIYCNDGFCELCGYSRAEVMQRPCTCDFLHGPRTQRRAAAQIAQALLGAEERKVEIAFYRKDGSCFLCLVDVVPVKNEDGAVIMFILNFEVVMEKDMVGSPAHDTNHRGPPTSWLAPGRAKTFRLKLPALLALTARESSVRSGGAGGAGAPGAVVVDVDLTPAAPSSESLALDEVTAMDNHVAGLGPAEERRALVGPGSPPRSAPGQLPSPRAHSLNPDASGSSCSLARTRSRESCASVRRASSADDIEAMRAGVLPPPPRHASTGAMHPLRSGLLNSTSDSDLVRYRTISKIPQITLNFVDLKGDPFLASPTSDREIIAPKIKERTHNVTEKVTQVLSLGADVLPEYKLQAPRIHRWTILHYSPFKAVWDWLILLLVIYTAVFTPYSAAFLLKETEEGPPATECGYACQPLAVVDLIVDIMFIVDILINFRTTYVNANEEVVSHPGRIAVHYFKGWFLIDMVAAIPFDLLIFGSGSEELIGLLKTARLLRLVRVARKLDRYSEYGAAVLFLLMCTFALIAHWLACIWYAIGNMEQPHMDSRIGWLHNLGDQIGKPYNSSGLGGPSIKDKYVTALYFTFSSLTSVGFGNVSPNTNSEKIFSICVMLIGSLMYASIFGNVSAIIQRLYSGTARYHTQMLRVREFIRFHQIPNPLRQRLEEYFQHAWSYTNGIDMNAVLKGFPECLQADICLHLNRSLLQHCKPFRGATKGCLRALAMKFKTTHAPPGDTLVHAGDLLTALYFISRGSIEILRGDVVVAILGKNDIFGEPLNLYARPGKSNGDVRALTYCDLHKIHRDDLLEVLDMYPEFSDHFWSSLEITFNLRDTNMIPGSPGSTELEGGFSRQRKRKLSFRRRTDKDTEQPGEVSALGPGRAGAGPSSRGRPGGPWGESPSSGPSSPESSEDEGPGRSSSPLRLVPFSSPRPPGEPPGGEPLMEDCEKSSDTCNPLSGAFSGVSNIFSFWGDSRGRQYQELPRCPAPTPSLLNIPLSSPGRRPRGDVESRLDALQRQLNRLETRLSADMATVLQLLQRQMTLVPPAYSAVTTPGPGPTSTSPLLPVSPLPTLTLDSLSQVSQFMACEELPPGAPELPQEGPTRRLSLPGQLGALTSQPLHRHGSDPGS

Row | SMILES | IC50 (hERG potassium channels) | Remaining amount% at 60 min [1] | Remaining amount% at 60 min [2] | IC50 (5-HT2A receptor; [4]) | Remaining amount% at 60 min [3] | IC50 (5-HT2A receptor)
1 | CN1CCC(N(Cc2ccc(F)cn2)C(=O)NCc2cnc(OCC(F)(F)F)c(Br)c2)CC1 [Compound 28] | > 30 µM | 54.78% | 38.94% |  |  | 
2 | CN1CCC(N(Cc2ccc(F)cn2)C(=O)NCc2cnc(OCC(F)(F)F)c(Cl)c2)CC1 [Compound 27] | > 30 µM | 63.98% | 50.93% |  |  | 
3 | CN1CCC(N(Cc2ccc(F)cn2)C(=O)NCc2ccc(OCC(F)(F)F)nc2)C2(CC2)C1 (single isomer, unassigned) [Compound 50A] | 2.2 µM | 58.8% | 89.7% | 2.6 nM |  | 
4 | CN1CCC(N(Cc2ccc(F)cn2)C(=O)NCc2ccc3[nH]ccc3c2)CC1 [Compound 9] | 3.12 µM |  | 93.1% | 28.2 nM | 45.3% | 
5 | CN1CCC(N(Cc2ccc(F)cn2)C(=O)NCc2ccc(OCC(F)(F)F)cn2)CC1 [Compound 1] | 4.93 µM |  | 85.7% | 152 nM | 88.7% | 
6 | CN1CCC(N(Cc2ccc(F)cn2)C(=O)NCc2ccc3c(ccn3C)c2)CC1 [Compound 12] | 2.22 µM | 69.21% | 77.06% |  |  | 163 nM
7 | CN1CC[C@H](N(Cc2ccc(F)cn2)C(=O)NCc2ccc(OCC(F)(F)F)nc2)[C@@H](F)C1 [Compound 66] | 2.99 µM |  | 73.7% |  | 85.1% | 22.7 nM

From patent EP4570793A1, “5-HT2A RECEPTOR INVERSE AGONIST, AND PREPARATION METHOD THEREFOR AND USE THEREOF” (Luye Innomind Pharma Shijiazhuang Co., Ltd., priority 2022, dated 2024)
